Measurements taken from patent US6806257B1, “Flavones as inducible nitric oxide synthase inhibitors, cyclooxygenase-2 inhibitors and potassium channel activators” (priority 1999, dated 2004).
“Also recorded” adds a separate entry of the source. Where two headings read alike, the source gives them in different places. Marks after values point to notes of the source that are not given here.

Tests used:
COX-2 = assay: LPS-induced COX-2 expression in RAW264.7 macrophages (western/northern blot); type: cell-based, mouse
Method: Cells. RAW264.7, a mouse macrophage cell line, was obtained from American Type Culture Collection. Cells were cultured in RPMI-1640 medium (available from Gibco Life Technology, in Gaithersburg, Md.) supplemented with 2 mM L-glutamine, antibiotics (100 units/ml penicillin-A and 100 units/ml streptomycin) and 10% heat-inactivated fetal bovine serum (Gibco/BRL) and maintained at 37° C in a humidified incubator containing 5% CO2.
(§1) Western blots. Total cellular extract, cytosolic fractions (for IkB) and nuclear fraction (for p65 antibody) were prepared according to Muller et al., Immunobiology, 187, 233-256, 1993 and separated on sodium dodecyl sulfatepolyacrylamide minigels (8% for iNOS or COX-2, and 10% for IkB or p65) and transferred to immobilon polyvinylidene difluoride membranes (Millipore, Bedford, Mass.). The membrane was incubated overnight at 4° C. with 1% bovine serum albumin and then incubated with anti-iNos, COX-2, α-Tubulin monoclonal antibodies (Transduction Laboratories, Lexington, Ky.), anti-IkB or anti-p65 polyclonal antibodies (Santa Cruz Biochemicals, Santa Cruz, Calif.). iNOS, IkB, p65, Cox-2, α-Tubulin were detected by NBT and BCIP staining (Sigma Chemical Co., St. Louis, Mo.).

NF-kB (p65) / IkB = assay: Nuclear p65 / cytosolic IkB western blot in LPS-treated RAW264.7 macrophages; type: cell-based, mouse; conditions: 20 μg/ml, 100 ng/ml LPS for 30 minutes
Method: as §1
NF-kB is a transcription factor that is activated in response to stimulation by LPS, and activation of NF-kB is an essential factor in inducing iNOS gene expression in macrophages (Kim, Y. M., Biochem. Biophys. Res. Commun. 236, 655-660, 1997). To assess the effect of these compounds (20 μg/ml) on early stage of iNOS gene expression, the activation of NF-kB in RAW264.7 macrophages was examined using the electrophoretic mobility shift assay (EMSA) (FIGS. 6i and 6ii).

iNOS = assay: LPS-induced nitrite production and iNOS expression in Bcl-2-overexpressed RAW264.7 cells; type: cell-based, mouse; conditions: 20 μg/ml, LPS 100 ng/ml, Bcl-2/RAW-1 and Bcl-2/RAW-2 cells
[1] = tested on: porcine cerebral arteries; assay: L-arginine-induced relaxation in LPS-incubated cerebral arteries without endothelial cells; conditions: LPS 10 μg/ml 20 hours, concomitant 60 μM, U-46619 tone
Method: (§2) In vitro tissue bath studies. The arterial segment (4 mm long) of the circle of Willis was dissected and cannulated with a stainless-steel rod (30-28 gauge) of hemispherical section, and a short piece of platinum wire, and mounted horizontally in a plastic tissue bath containing 6 ml of Krebs' bicarbonate solution. The platinum wire was bent into a U shape and anchored to a gate. The stainless-steel rod was connected to a stain gauge transducer (UC3, available from Gould) for isometric recording of changes in force. The temperature of Krebs' solution in the tissue baths, equilibrated with 95% O2 and 5% CO2, was maintained at 37° C. Tissues were equilibrated in the Krebs' solution for an initial 30 minutes and were mechanically stretched to a resting tension of 0.75 g for another 30 minutes. The segments of the circle of Willis were precontracted with 9,11-dideoxy-9α,11α-epoxymethanoprostagladin F2α(U-46619, 1 μM) to induce an active muscle tone of 0.5-0.75 g. Experimental drugs such as L-arginine and Oroxylin A of various concentrations, and TNS at 2,4,8 Hz were applied to induce relaxation. The arteries were then washed with pre-warmed Krebs' solution. […] Stimulation parameters were continuously monitored on a Tektronix oscilloscope. […] The magnitude of a vasodilator response induced by experimental drugs and TNS was expressed as a percentage of the maximum response induced by PPV. […]

[2] = tested on: porcine cerebral arteries; assay: Relaxation elicited by transmural nerve stimulation (TNS) in cerebral arterial segments; conditions: acute administration 30 μM, U-46619 tone
Method: as §2

[3] = tested on: porcine cerebral arteries; assay: In vitro tissue bath vasorelaxation of precontracted porcine cerebral arteries; conditions: for EC50: Sus scrofa; for U-46619-induced active muscle tone: 0.1-30 μM
[4] = conclusion from blocker experiments

## COc1c(O)cc2oc(-c3ccccc3)cc(=O)c2c1O [oroxylin A, 5,7-dihydroxy-6-methoxy flavone]
COX-2
  LPS-induced COX-2 gene expression (protein and mRNA): most potent among the compounds tested; also recorded: inhibited
NF-kB (p65) / IkB
  LPS-induced increase of nuclear p65 and decrease of cytosolic IkB: significantly inhibited
iNOS
  LPS-induced iNOS gene expression: inhibited
  LPS-induced nitrite production: inhibited
[1]
  LPS-rendered L-Arginine-induced relaxation: significantly decreased
[2]
  relaxation elicited by TNS at 2, 4, and 8 Hz: slightly and significantly enhanced; also recorded: increased
[3]; 60 μM, KCl (80 mM)-pre-contracted arterial rings, n=5
  transient relaxation: 20.2±1.63 % of PPV-induced maximum relaxation
[3]; 60 μM, same arteries contracted with U-46619, n=5
  relaxation: 95.1±4.31 % of PPV-induced maximum relaxation
[3]; 80 mM KCl, 1-60 μM, with or without endothelial cells
  sustained relaxation in KCl-precontracted arteries: did not induce sustained relaxation; also recorded: failed to induce sustained relaxation
[3]; Oroxylin A 3 μM, after 4-AP (10 mM)
  Percent of Maximum Control Relaxation: 1.8 ± 1.6%
[3]; Oroxylin A 3 μM, after ETI (10 μM)
  Percent of Maximum Control Relaxation: 21.4 ± 2.1%
[3]; Oroxylin A 3 μM, after GLP (30 μM)
  Percent of Maximum Control Relaxation: 24.6 ± 3.4%
[3]; Oroxylin A 3 μM, after IBT (100 nM)
  Percent of Maximum Control Relaxation: 16.8 ± 3.1%
[3]; Oroxylin A 3 μM, after INDO (30 μM)
  Percent of Maximum Control Relaxation: 23.0 ± 1.8%
[3]; Oroxylin A 3 μM, after L-NNA (60 μM)
  Percent of Maximum Control Relaxation: 26.9 ± 3.4%
[3]; Oroxylin A 3 μM, after MCN (5 μM)
  Percent of Maximum Control Relaxation: 21.2 ± 3.4%
[3]; Oroxylin A 3 μM, after TEA (1 mM)
  Percent of Maximum Control Relaxation: 7.1 ± 3.0%
[3]; Oroxylin A 3 μM, after TEA (10 mM)
  Percent of Maximum Control Relaxation: 0** Percent
[3]; Oroxylin A 3 μM, control (no inhibitor), n=12
  Percent of Maximum Control Relaxation: 24.6 ± 1.9%
[3]; Oroxylin A 10 μM, after 4-AP (10 mM)
  Percent of Maximum Control Relaxation: 9.7 ± 2.0%
[3]; Oroxylin A 10 μM, after ETI (10 μM)
  Percent of Maximum Control Relaxation: 41.3 ± 4.4%
[3]; Oroxylin A 10 μM, after GLP (30 μM)
  Percent of Maximum Control Relaxation: 46.5 ± 7.1%
[3]; Oroxylin A 10 μM, after IBT (100 nM)
  Percent of Maximum Control Relaxation: 30.8 ± 5.2%
[3]; Oroxylin A 10 μM, after INDO (30 μM)
  Percent of Maximum Control Relaxation: 41.8 ± 5.6%
[3]; Oroxylin A 10 μM, after L-NNA (60 μM)
  Percent of Maximum Control Relaxation: 45.3 ± 6.0%
[3]; Oroxylin A 10 μM, after MCN (5 μM)
  Percent of Maximum Control Relaxation: 37.4 ± 4.5%
[3]; Oroxylin A 10 μM, after TEA (1 mM)
  Percent of Maximum Control Relaxation: 31.5 ± 6.6%
[3]; Oroxylin A 10 μM, after TEA (10 mM)
  Percent of Maximum Control Relaxation: 4.87 ± 1.5%
[3]; Oroxylin A 10 μM, control (no inhibitor), n=12
  Percent of Maximum Control Relaxation: 49.0 ± 3.4%
[3]; Oroxylin A 30 μM, after 4-AP (10 mM)
  Percent of Maximum Control Relaxation: 28.4 ± 6.7%
[3]; Oroxylin A 30 μM, after ETI (10 μM)
  Percent of Maximum Control Relaxation: 91.4 ± 1.5%
[3]; Oroxylin A 30 μM, after GLP (30 μM)
  Percent of Maximum Control Relaxation: 84.2 ± 7.1%
[3]; Oroxylin A 30 μM, after IBT (100 nM)
  Percent of Maximum Control Relaxation: 68.1 ± 7.2%
[3]; Oroxylin A 30 μM, after INDO (30 μM)
  Percent of Maximum Control Relaxation: 89.1 ± 3.6%
[3]; Oroxylin A 30 μM, after L-NNA (60 μM)
  Percent of Maximum Control Relaxation: 91.9 ± 2.8%
[3]; Oroxylin A 30 μM, after MCN (5 μM)
  Percent of Maximum Control Relaxation: 87.2 ± 2.6%
[3]; Oroxylin A 30 μM, after TEA (1 mM)
  Percent of Maximum Control Relaxation: 58.6 ± 6.7%
[3]; Oroxylin A 30 μM, after TEA (10 mM)
  Percent of Maximum Control Relaxation: 16.3 ± 2.0%
[3]; Oroxylin A 30 μM, control (no inhibitor), n=12
  Percent of Maximum Control Relaxation: 86.0 ± 2.6%
[3]; after ETI (10 μM), read-out: EC50
  EC50: 8.1 µM
[3]; after GLP (30 μM), read-out: EC50
  EC50: 11.2 µM
[3]; after IBT (100 nM), read-out: EC50
  EC50: 15 µM
[3]; after INDO (30 μM), read-out: EC50
  EC50: 10 µM
[3]; after L-NNA (60 μM), read-out: EC50
  EC50: 11.4 µM
[3]; after MCN (5 μM), read-out: EC50
  EC50: 10.5 µM
[3]; after TEA (1 mM), read-out: EC50
  EC50: 21.5 µM
[3]; after TEA (10 mM), read-out: EC50
  EC50: 39.3 µM
[3]; control (no inhibitor), n=12, read-out: EC50
  EC50: 8.4 µM
[3]; endothelium-denuded arteries, U-46619, n=12, read-out: EC50 of relaxation
  EC50: 8.4 µM
[3]; intact endothelium, pre-contracted with U-46619 (1 μM), n=4, read-out: EC50 of relaxation
  EC50: 7.9 µM
[3]; U-46619 (1 μM)
  U-46619-induced active muscle tone: concentration-dependant inhibition
[3]; U-46619 (1 μM), listed as Oroxylin A
  U-46619-induced active muscle tone: in a concentration-dependent manner decreased
[3]; [4]
  Ca2+-activated K+ channel opening: is a Ca^2+— activated K^+ channel opener
  KATP channel opening: is not a KATP channel opener
[3]; intact endothelium, U-46619 (1 μM)
  concentration at which maximum relaxation was achieved: 30 µM
